The values below come from publication PMC6195508, “Studies on the metabolism and degradation of vancomycin in simulated in vitro and aquatic environment by UHPLC-Triple-TOF-MS/MS” (Scientific Reports, 2018).

The nature of data set [1]: Degradation of vancomycin in phosphate buffer saline (PBS system). It counts as physicochemical. To be noted: chemical stability in phosphate buffer saline; vancomycin 60 mg/L; 37 °C, constant temperature oscillator, sampled every 24 h for 10 days; one sample per time point; UHPLC-Triple-TOF-MS/MS, ESI+. As to the method: (§1) UHPLC-Triple-TOF-MS/MS analysis was performed on a Shimadzu LC-30A UHPLC system (Kyoto, Japan) consisting of an autosampler (SIL-30AC), a binary pump (LC-30AD) and a column oven (CTO-30A) connected to an AB SCIEX triple TOF 5600 MS/MS system (Redwood, USA) equipped with Duo-Spray ion source. The compound separation was conducted with a Poroshell 120 EC-C18 (2.1 × 150 mm, 2.7 μm, Agilent InfinityLab, USA) chromatographic column maintained at 40 °C. The mobile phases A (0.1% aqueous formic acid) and B (acetonitrile) were used to optimized the gradient elution program, which was operated at follows: 0–1 min, 5% B; 1–9 min, 5–10% B; 9–14 min, 10–45% B; 14–20 min, 45–90% B; 20–25 min, 90% B for washing the column; 25–25.1 min, 90–5% B; 25.1–30 min, 5% B for equilibrating the column. The constant flow rate was 0.4 mL/min, and the injection volume was 5 µL.
(§2) The full-scan MS spectra and MS/MS spectra data were obtained in positive electrospray ionization (ESI) mode by Analyst TF 1.6 software (AB Sciex, USA). Full scan mode was applied, the parent ions scan ranged from m/z 100 to 2000 Da with a 200 ms accumulation time and the product ions scan range from 100 to 1500 Da with a 70 ms accumulation time. Simultaneously, the calibration delivery system calibrated mass numbers by every five samples to acquire exact mass of ions. The running time of data independent acquisition (DIA) was 20 min. […]

Data set [2] can be described thus: Incubation of vancomycin in activated (experimental) and inactivated (control) rat liver microsomes. The class given is in vitro ADME. To be noted: vancomycin 60 mg/L, 37 °C, UHPLC-Triple-TOF-MS/MS. As to the method:
as §1, §2

Data set [3] in a line: Degradation of vancomycin in pure water (pure water system). It counts as physicochemical. To be noted: chemical stability in pure (Milli-Q) water; vancomycin 60 mg/L; 37 °C, constant temperature oscillator, sampled every 24 h for 10 days; one sample per time point; UHPLC-Triple-TOF-MS/MS, ESI+. The protocol: as §1, §2

Consider `CN[C@H](CC(C)C)C(=O)N[C@H]1C(=O)N[C@@H](CC(N)=O)C(=O)N[C@H]2C(=O)N[C@H]3C(=O)N[C@H](C(=O)N[C@H](C(=O)O)c4cc(O)cc(O)c4-c4cc3ccc4O)[C@H](O)c3ccc(c(Cl)c3)Oc3cc2cc(c3O[C@@H]2O[C@H](CO)[C@@H](O)[C@H](O)[C@H]2O[C@H]2C[C@](C)(N)[C@H](O)[C@H](C)O2)Oc2ccc(cc2Cl)[C@H]1O` [vancomycin, Vancomycin], for which the “time to 50% loss of vancomycin in PBS” value in data set [1] is “approximately 9 days”. Besides, the half-life at 60 mg/L in data set [2] (male, Sprague-Dawley rat liver microsomes 1 mg/mL protein (activated with 1 mmol/L NADPH, or inactivated), PBS, MgCl2 3.3 mmol/L, constant temperature oscillator, pre-heated 5 min, sampled every 24 h for 10 days, one sample per time point, ESI+, read-out: time to 50% loss of vancomycin in rat liver microsomes (converted)) was ~144 h. For the same molecule, the “metabolism by liver microsomal cytochrome P450 enzymes (activated versus inactivated microsomes)” value in data set [2] (similar degradation rate in activated (NADPH 1 mmol/L) and inactivated rat liver microsomes, 1 mg/mL protein) was “not metabolized in the liver”. In addition, the “time to 50% loss of vancomycin in water” value in data set [3] is recorded as “over 10 days”.
